Measurements from US20040076974A1, “Liver necrosis predictive genes” (priority 2002, published 2004).
“And” between values parts separate entries of the source, which are not always exact repeats. Equal values may be shown once. Read-outs that look alike come from different tables or passages of the source.

Experiments:
Sprague Dawley rats = details: rat; for Liver Necrosis / Score (histopathology liver necrosis severity score): intraperitoneal; for Liver Necrosis: 72 hours after treatment; for Score (histopathology liver necrosis severity score): 72 hours, 1 = not remarkable, 2 and higher increasing severity
Summary of the method: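 Toxicity calls (necrosis present or absent at 72 h) and histopathology scores were correlated with tissue gene expression from Crl:CD Sprague Dawley rats. Animals, usually 3 treated with compound by i.p. route and 3 given vehicle, were killed at 6, 24 or 72 h and tissues frozen immediately in liquid nitrogen.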

[1] = system: toxicologically relevant rat genes (rat CT array)
[2] = 24 h, dose 20, ratio treatment/control
[3] = 24 h, dose 20, ratio treatment/control, listed as PHEN

NNc1ccccc1 [phenylhydrazine]
Liver Toxicity Necrosis Classification (Sprague Dawley rats; in vivo): no | Liver Necrosis (Sprague Dawley rats; dose 20 mg/kg): no | Score (histopathology liver necrosis severity score) (Sprague Dawley rats; dose 20 mg/kg): 1 | Liver Necrosis (Sprague Dawley rats; dose 80 mg/kg): no | Score (histopathology liver necrosis severity score) (Sprague Dawley rats; dose 80 mg/kg): 1 | Aflatoxin B1 aldehyde reductase ([1]; 24 h): 0.6558 and 0.8284 | Bax (alpha) [1, 2]: 1.114 | Proliferating cell nuclear antigen gene [1, 2]: 0.9203 | 3-hydroxyisobutyrate dehydrogenase [1, 3]: 0.9143 and 0.9803 | 14-3-3 zeta [1, 3]: 1.282 and 1.371 | 60S ribosomal protein L6 [1, 3]: 0.8081 and 0.8097 | ATPase inhibitor (rat mitochondrial IF1 protein) [1, 3]: 0.5186 and 0.4781 | Alpha 1 - inhibitor III [1, 3]: 0.5075 and 0.4307 | Alpha-2-macroglobulin [1, 3]: 0.5649 and 0.479 | Bax (alpha) [1, 3]: 1.115 | Beta-actin [1, 3]: 1.318 and 1.347 | Calpactin I heavy chain [1, 3]: 1.093 and 1.232 | Carbamyl phosphate synthetase I [1, 3]: 0.8997 and 0.8454 | Carbonic anhydrase III [1, 3]: 2.069 and 2.604 | Carbonyl reductase [1, 3]: 1.013 and 1.035 | Cathepsin L, sequence 2 [1, 3]: 1.124 | Cofilin [1, 3]: 1.075 and 0.9686 | Cyclin G [1, 3]: 1.06 and 1.18 | DNA polymerase beta [1, 3]: 0.6488 and 0.5275 | Dynamin-1 (D100) [1, 3]: 0.9853 and 0.8394 | Endogenous retroviral sequence, 5′ and 3′ LTR [1, 3]: 1.197 and 1.103 | Enolase alpha [1, 3]: 0.7101 and 0.7241 | Epidermal growth factor [1, 3]: 0.7579 and 0.6975 | Equilbrative nitrobenzylthioinosine-sensitive nucleoside transporter [1, 3]: 0.6046 and 0.5693 | Extracellular-signal-regulated kinase 1 [1, 3]: 1.377 and 1.805 | Fas antigen [1, 3]: 1.2 and 1.204 | Gadd45 [1, 3]: 1.142 and 1.49 | Gadd153 [1, 3]: 1.087 and 1.085 | Gamma-actin, cytoplasmic [1, 3]: 0.7836 and 0.7811 | Glucose-regulated protein 78 [1, 3]: 0.8506 and 0.7386 | Heme oxygenase [1, 3]: 1.498 and 1.908 | Hepatic lipase [1, 3]: 0.5441 and 0.4993 | ID-1 [1, 3]: 1.157 and 1.321 | IgE binding protein [1, 3]: 1.098 and 1.166 | IkB-a [1, 3]: 0.8328 and 0.7684 | Insulin-like growth factor I [1, 3]: 0.8551 and 0.7944 | Insulin-like growth factor binding protein 1 [1, 3]: 1.056 and 0.9665 | Insulin-like growth factor binding protein 3 [1, 3]: 0.8807 and 0.8119 | Integrin beta1 [1, 3]: 1.12 | L-gulono-gamma-lactone oxidase [1, 3]: 1.301 and 1.543 | Liver fatty acid binding protein [1, 3]: 0.6905 and 0.5494 | MAP kinase kinase [1, 3]: 1.023 and 1.164 | Macrophage inflammatory protein-2 alpha [1, 3]: 1.132 and 1.347 | Matrin F/G [1, 3]: 1.071 and 0.9981 | Matrix metalloproteinase-1 [1, 3]: 1.581 and 1.897 | Melanoma-associated antigen ME491 [1, 3]: 0.9841 | Monocyte chemotactic protein receptor (CCR2) [1, 3]: 1.3 and 1.499 | Multidrug resistant protein-2 [1, 3]: 1.286 and 1.334 | N-hydroxy-2-acetylaminofluorene sulfotransferase (ST1C1) [1, 3]: 0.5527 and 0.5091 | Nucleoside diphosphate kinase beta isoform [1, 3]: 1.1 | Organic anion transporter 3 [1, 3]: 1.058 | Organic cation transporter 3 [1, 3]: 0.9117 and 0.8387 | Ornithine decarboxylase [1, 3]: 1.479 and 1.694 | PAR interacting protein [1, 3]: 0.9791 and 0.9269 | Phase-1 RCT 252 [1, 3]: 0.7562 | Phase-1 RCT-15 [1, 3]: 3.553 and 2.982 | Phase-1 RCT-39 [1, 3]: 0.9896 | Phase-1 RCT-49 [1, 3]: 0.869 and 0.8084 | Phase-1 RCT-50 [1, 3]: 1.203 | Phase-1 RCT-68 [1, 3]: 1.203 | Phase-1 RCT-78 [1, 3]: 1.292 | Phase-1 RCT-83 [1, 3]: 0.5669 and 0.5525 | Phase-1 RCT-88 [1, 3]: 2.1 | Phase-1 RCT-89 [1, 3]: 0.8262 | Phase-1 RCT-92 [1, 3]: 2.107 | Phase-1 RCT-102 [1, 3]: 1.096 | Phase-1 RCT-137 [1, 3]: 0.4276 and 0.4239 | Phase-1 RCT-144 [1, 3]: 0.8929 | Phase-1 RCT-152 [1, 3]: 0.7359 and 0.7085 | Phase-1 RCT-168 [1, 3]: 0.7781 | Phase-1 RCT-181 [1, 3]: 1.504 | Phase-1 RCT-182 [1, 3]: 0.6963 and 0.8836 | Phase-1 RCT-189 [1, 3]: 0.7721 and 0.6053 | Phase-1 RCT-191 [1, 3]: 0.6314 and 0.7152 | Phase-1 RCT-192 [1, 3]: 0.9295 | Phase-1 RCT-225 [1, 3]: 1 | Phase-1 RCT-264 [1, 3]: 0.5562 and 0.6031 | Phase-1 RCT-270 [1, 3]: 0.728 | Phase-1 RCT-271 [1, 3]: 1.199 | Phase-1 RCT-288 [1, 3]: 0.8205 and 0.8069 | Phase-1 RCT-295 [1, 3]: 1.57 | Proliferating cell nuclear antigen gene [1, 3]: 1.089 | Ribosomal protein L13A [1, 3]: 1.024 | Ribosomal protein S8 [1, 3]: 0.7171 and 0.6731 | Ribosomal protein S17 [1, 3]: 0.7324 and 0.6158 | Senescence marker protein-30 [1, 3]: 0.7313 and 0.841 | Sodium/bile acid cotransporter [1, 3]: 0.6926 and 0.7429 | Superoxide dismutase Mn [1, 3]: 1.092 and 1.114 | Thymosin beta-10 [1, 3]: 0.7195 and 0.7559 | Transthyretin [1, 3]: 0.4631 and 0.4873 | Ubiquitin conjugating enzyme (RAD 6 homologue) [1, 3]: 0.7763 and 0.6535 | Uncoupling protein 2 [1, 3]: 0.9638 and 0.9416 | Zinc finger protein [1, 3]: 0.8961 and 0.8505 | c-jun [1, 3]: 1.14 and 1.384 | c-myc [1, 3]: 1.235 and 1.141 | p53 [1, 3]: 1.067 and 1.196 | {Ribosomal protein L6} [1, 3]: 1.368 and 1.181 | Paraoxonase 1 ([1]; rat, in vivo): 0.4982 and 0.4752
